Common to all, as to format: biochemical
Assay [1] deals with T1, KRAS G12C (amino acids 1-169) (Homo sapiens, UniProt P01116, G12C).
T1 construct: made in house; host or cells: E. coli
The assay is described as follows: SOS-catalyzed nucleotide exchange assay (Procedure B, BODIPY FL GDP displacement), KRAS G12C. Particulars: read-out: KRAS G12C GNE IC50. As for the experimental part: (§1) Procedure for SOS-Catalyzed Nucleotide Exchange Assay for KRAS-G12C/D/V/WT (Procedure B)
(§2) Recombinant KRAS G12C (amino acids 1-169, SEQ ID NO:9), KRAS G12D (amino acids 1-169, SEQ ID NO: 10), KRAS G12V (amino acids 1-169, SEQ ID NO: 11), KRAS WT (amino acids 1-169, SEQ ID NO:12) and SOS1 (amino acids 564-1049, SEQ ID NO: 13) proteins were expressed in E. coli and purified by affinity chromatography. To prepare each BODIPY™ FL GDP-bound KRAS protein, 50 μM KRAS proteins were incubated with 0.5 mM BODIPY™ FL GDP (Invitrogen, G22360) in a loading buffer (20 mM Tris-HCl pH 7.5, 50 mM NaCl, 1 mM DTT and 2.5 mM EDTA) for 1 hour on ice. After the incubation, MgCl2 was added to a final concentration of 10 mM, followed by an incubation at room temperature for 30 minutes. The mixtures were allowed to pass through a NAP-5 column to remove free nucleotides and purified BODIPY™ FL GDP-bound KRAS G12C, G12D, G12V and WT proteins were used for compound evaluation.
(§3) The inhibitory activity of compounds on recombinant KRAS is measured by the displacement of the bound BODIPY™ GDP. Specifically, 2.5 nM of each BODIPY™ FL GDP-bound KRAS complex was incubated with various concentrations of compound in a reaction buffer (20 mM Tris-HCl pH 7.5, 100 mM NaCl, 1 mM MgCl2, 2 mM DTT, 0.1% Tween 20) at 25° C. for 1 hour. After the incubation, recombinant SOS1 and GMPPNP (Jena Bioscience GmbH, NU-401) were added and incubated at room temperature for 30 minutes to proceed SOS1-dependent GDP-GTP exchange reaction on KRAS. Displacement of BODIPY™ FL GDP by Guanosine-5′-[(β,γ)-imido]triphosphate, Tetralithium salt (GMPPNP) was measured by calculating the ratio of fluorescence intensities of BODIPY™ FL before and after the exchange reaction. Percent Inhibition was calculated by setting the fluorescence ratio from the reaction without test compound (DMSO control) and the fluorescence ratio from the reaction without SOS1 and GMPPNP as 0% and 100% inhibition, respectively. Dose response curves were analyzed using a 4-parameter logistic model to calculate IC50 values.

The target in assay [2] is T2, KRAS G12D (amino acids 1-169) (Homo sapiens, UniProt P01116, G12D).
T2 construct: made in house; host or cells: E. coli
The experiment in a line: SOS-catalyzed nucleotide exchange assay (Procedure B, BODIPY FL GDP displacement), KRAS G12D. Particulars: read-out: KRAS G12D GNE IC50. As for the experimental part: as §1, §2, §3

Assay [3] deals with T3, KRAS G12V (amino acids 1-169) (Homo sapiens, UniProt P01116, G12V).
T3 construct: made in house; host or cells: E. coli
The experiment in a line: SOS-catalyzed nucleotide exchange assay (Procedure B, BODIPY FL GDP displacement), KRAS G12V. Particulars: read-out: KRAS G12V GNE IC50. On the procedure: as §1, §2, §3

Assay [4] concerns the target T4, KRAS WT (amino acids 1-169) (Homo sapiens, UniProt P01116).
T4 construct: made in house; host or cells: E. coli
The experiment in a line: SOS-catalyzed nucleotide exchange assay (Procedure B, BODIPY FL GDP displacement), KRAS WT. Particulars: read-out: KRAS WT GNE IC50. On the procedure:
as §1, §2, §3

The values below come from patent US20260176289A1, “SMALL MOLECULE INHIBITORS OF KRAS PROTEINS” (Merck Sharp & Dohme LLC, priority 2022, published 2026).

T4 sequence (P01116 with tags, fused parts or gaps isoform P01116-2): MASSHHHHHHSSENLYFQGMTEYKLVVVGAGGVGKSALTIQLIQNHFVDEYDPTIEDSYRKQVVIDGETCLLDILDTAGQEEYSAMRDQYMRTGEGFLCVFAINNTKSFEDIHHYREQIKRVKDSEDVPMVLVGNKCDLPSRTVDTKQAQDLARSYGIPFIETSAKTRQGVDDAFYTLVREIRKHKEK
T2 sequence (P01116 with tags, fused parts or gaps isoform P01116-2 G12D): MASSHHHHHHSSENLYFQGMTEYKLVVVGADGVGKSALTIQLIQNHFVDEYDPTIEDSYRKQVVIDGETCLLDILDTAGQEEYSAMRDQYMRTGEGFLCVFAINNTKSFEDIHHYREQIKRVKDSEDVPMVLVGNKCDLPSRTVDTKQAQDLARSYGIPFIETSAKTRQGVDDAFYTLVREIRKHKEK
T1 sequence (P01116 with tags, fused parts or gaps isoform P01116-2 G12C): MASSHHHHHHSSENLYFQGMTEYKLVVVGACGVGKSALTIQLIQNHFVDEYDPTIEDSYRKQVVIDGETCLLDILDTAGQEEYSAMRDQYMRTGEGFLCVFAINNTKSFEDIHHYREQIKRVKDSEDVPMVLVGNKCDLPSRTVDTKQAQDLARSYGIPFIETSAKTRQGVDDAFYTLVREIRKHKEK
T3 sequence (P01116 with tags, fused parts or gaps isoform P01116-2 G12V): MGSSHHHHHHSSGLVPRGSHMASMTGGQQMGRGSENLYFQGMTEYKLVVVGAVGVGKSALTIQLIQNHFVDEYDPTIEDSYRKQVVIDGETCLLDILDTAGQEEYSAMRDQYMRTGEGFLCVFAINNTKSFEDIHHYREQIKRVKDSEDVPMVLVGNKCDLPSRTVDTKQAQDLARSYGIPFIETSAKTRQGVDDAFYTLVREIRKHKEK

What is called IC50 is the concentration that inhibits the measured activity by half. On to `C#Cc1cccc2cccc(-c3nncc4c3sc3nc(OC[C@@]56CCCN5C[C@H](F)C6)nc(N5CCOC[C@@](C)(O)C5)c34)c12` [Ex-285], for which the 50% inhibitory concentration (IC50) amounted to 645 nM in assay [1], 322 nM in assay [2], 1000 nM in assay [3] and 889 nM in assay [4].

As to `C[C@@]1(O)COCCN(c2nc(OC[C@@]34CCCN3C[C@H](F)C4)nc3sc4c(-c5c(C6(F)CC6)c(C6CC6)cc6[nH]ncc56)nccc4c23)C1` [Ex-57, (6S)-4-(8-(6-cyclopropyl-5-(1-fluorocyclopropyl)-1H-indazol-4-yl)-2-(((2R,7aS)-2-fluorotetrahydro-1H-pyrrolizin-7a(5H)-yl)methoxy)pyrido[4′,3′: 4,5]thieno[2,3-d]pyrimidin-4-yl)-6-methyl-1,4-oxazepan-6-ol], the concentration for half-maximal inhibition (IC50) in assay [1] came out at 62.5 nM; in assay [2], 26.9 nM; in assay [3], 41.3 nM; in assay [4] it was 29.3 nM.

For `Cc1cc2[nH]ncc2c(-c2nccc3c2sc2nc(OC[C@@]45CCCN4C[C@H](F)C5)nc(N4C[C@H](O)C[C@H]4C)c23)c1C(F)(F)F` [Ex-183, (3R,5R)-1-(2-(((2R,7aS)-2-fluorotetrahydro-1H-pyrrolizin-7a(5H)-yl)methoxy)-8-(6-methyl-5-(trifluoromethyl)-1H-indazol-4-yl)pyrido[4′,3′: 4,5]thieno[2,3-d]pyrimi-din-4-yl)-5-methylpyrrol-idin-3-ol], the concentration for half-maximal inhibition (IC50) in assay [1] was found to be 2880 nM; in assay [2] it was 2190 nM; in assay [3], 4640 nM; in assay [4] it was 2990 nM.

As to `C[C@H]1CN2C[C@H](F)C[C@@]2(COc2nc(N3CCOC[C@@](C)(O)C3)c3c(n2)sc2c(-c4c(C5CC5)c(Cl)cc5[nH]ncc45)nccc23)C1` [Ex-226, (6S)-4-(8-(6-chloro-5-cyclopropyl-1H-indazol-4-yl)-2-(((2R,6R,7aR)-2-fluoro-6-methyl-tetrahydro-1H-pyrrolizin-7a(5H)-yl)methoxy)pyrido [4′,3′:4,5]thieno[2,3-d]pyrimidin-4-yl)-6-methyl-1,4-oxaze-pan-6-ol], the IC50 in assay [1] came out at 48 nM; in assay [2] it was 30.6 nM; in assay [3], 42.1 nM; in assay [4], 50.9 nM.

For the molecule `Cc1cc2[nH]nc(I)c2c(-c2nccc3c2sc2nc(OC[C@@]45CCCN4C[C@H](F)C5)nc(N4CCOC[C@@](C)(O)C4)c23)c1C(F)(F)F` [Ex-149, (6S)-4-(2-(((2R,7aS)-2-fluorotetrahydro-1H-pyrrolizin-7a(5H)-yl)methoxy)-8-(3-iodo-6-methyl-5-(trifluoromethyl)-1H-indazol-4-yl)pyrido[4′,3′:4,5]thieno[2,3-d]pyrimidin-4-yl)-6-methyl-1,4-oxazepan-6-ol], the IC50 in assay [1] was 1920 nM; in assay [2] it was 1470 nM; in assay [3], 2370 nM; in assay [4], 1350 nM.

`CCC1CCc2cc3[nH]ncc3c(-c3nccc4c3sc3nc(OC[C@@]56CCCN5C/C(=C\F)C6)nc(N5CCOC[C@@](C)(O)C5)c34)c21` (stereo partly drawn) [Ex-94, (6S)-4-(8-(5-ethyl-1,5,6,7-tetrahydrocyclopenta[f]in-dazol-4-y1)-2-(((S,Z)-2-(fluoromethylene)tetrahy-dro-1H-pyrrolizin-7a(5H)-yl)methoxy)pyrido[4′,3':4,5]thi-eno[2,3-d]pyrimidin-4-y1)-6-methyl-1,4-oxazepan-6-ol]: the IC50 in assay [1] turned out to be 5.33 nM; in assay [2], 1.68 nM; in assay [3], 4.2 nM; in assay [4] it was 3.82 nM.

Consider `C[C@@]1(O)COCCN(c2nc(OC[C@@]34CCCN3C[C@H](F)C4)nc3sc4c(-c5c(-c6cnco6)c(Cl)cc6[nH]ncc56)nccc4c23)C1` [Ex-75, (6S)-4-(8-(6-chloro-5-(oxazol-5-yl)-1H-indazol-4-yl)-2-(((2R,7aS)-2-fluorotetrahydro-1H-pyrrolizin-7a(5H)-yl)methoxy)pyrido[4′,3′:4,5]thi-eno[2,3-d]pyrimidin-4-yl)-6-methyl-1,4-oxazepan-6-ol], for which the IC50 in assay [1] was 56 nM; in assay [2] it was 19.3 nM; in assay [3] it was 118 nM; in assay [4] it was 60.8 nM.

For the molecule `COC1c2c(cc3[nH]ncc3c2-c2nccc3c2sc2nc(OC[C@@]45CCCN4C[C@H](F)C5)nc(N4CCOC[C@@](C)(O)C4)c23)CC1(F)F` (stereo partly drawn) [Ex-110, (6S)-4-(8-(6,6-difluoro-5-methoxy-1,5,6,7-tetrahydrocyclopenta[f]in-dazol-4-yl)-2-(((2R,7aS)-2-fluorotetrahydro-1H-pyrrolizin-7a(5H)-yl)methoxy)pyrido[4′,3′:4,5]thi-no[2,3-d]pyrimidin-4-yl)-6-methyl-1,4-oxazepan-6-ol], the IC50 in assay [1] was 57.7 nM; in assay [2] it was 37.7 nM; in assay [3], 43 nM; in assay [4], 47.5 nM.

For the molecule `Cc1cc2[nH]ncc2c(-c2nccn3c2c(C)c2nc(OC[C@@]45CCCN4C[C@H](F)C5)nc(N4CCOC[C@@](C)(O)C4)c23)c1C(F)(F)F` (single isomer, unassigned) [Ex-301], the IC50 was 107 nM in assay [1], 49.5 nM in assay [2], 86.1 nM in assay [3] and 107 nM in assay [4].

As to `CC1c2c(cc3[nH]ncc3c2-c2nccc3c2sc2nc(OC[C@@]45CCCN4C[C@H](F)C5)nc(N4CCOC[C@@](C)(O)C4)c23)CC1(F)F` (single isomer, unassigned) [Ex-107], the concentration for half-maximal inhibition (IC50) in assay [1] was 19.8 nM; in assay [2] it was 3.81 nM; in assay [3], 9.52 nM; in assay [4], 6.2 nM.

As to `CC1Cc2cc3[nH]ncc3c(-c3nccc4c3sc3nc(OC[C@@]56CCCN5C[C@H](F)C6)nc(N5CCOC[C@@](C)(O)C5)c34)c2C1` (stereo partly drawn) [Ex-113, (6S)-4-(2-(((2R,7aS)-2-fluorotetrahydro-1H-pyrrolizin-7a(5H)-yl)methoxy)-8-(6-methyl-1,5,6,7-tetrahydrocyclopenta[f]in-dazol-4-yl)pyrido[4′,3′:4,5]thieno [2,3-d]pyrimidin-4-yl)-6-methy1-1,4-oxazepan-6-ol], the IC50 in assay [1] came out at 177 nM; in assay [2], 88.5 nM; in assay [3] it was 123 nM; in assay [4], 150 nM.

In the case of `Cc1cc2[nH]ncc2c(-c2nccn3c2c(C)c2nc(OC[C@@]45CCCN4C[C@H](F)C5)nc(N4CCOC[C@@](C)(O)C4)c23)c1C1CC1` [Ex-298, (S)-4-(9-(5-cyclopropyl-6-methyl-1H-indazol-4-yl)-2-(((2R,7aS)-2-fluorotetrahydro-1H-pyrrolizin-7a(5H)-yl)methoxy)-10-methylpyrazi-no[1′,2′:1,5]pyrrolo[3,2-d]pyrimidin-4-yl)-6-methyl-1,4-oxazepan-6-ol], the concentration for half-maximal inhibition (IC50) in assay [1] was determined as 85.2 nM; in assay [2], 49.8 nM; in assay [3], 159 nM; in assay [4], 113 nM.

For the molecule `C[C@@]1(O)COCCN(c2nc(OC[C@@]34CCCN3C[C@H](F)C4)nc3c(I)c4c(-c5c(C6CC6)c(Cl)cc6[nH]ncc56)nccn4c23)C1` [Ex-303, (S)-4-(9-(6-chloro-5-cyclopropyl-1H-indazol-4-yl)-2-(((2R,7aS)-2-fluorotetrahydro-1H-pyrrolizin-7a(5H)-yl)methoxy)-10-iodopyrazino [1′,2′:1,5]pyrrolo [3,2-d]pyrimidin-4-yl)-6-methyl-1,4-oxazepan-6-ol], the IC50 was 1140 nM in assay [1], 380 nM in assay [2], 837 nM in assay [3] and 732 nM in assay [4].

`Cc1cc2[nH]ncc2c(-c2nccc3c2sc2nc(OC[C@@]45CCCN4C[C@H](F)C5)nc(NC45CC(C4)C5)c23)c1C(F)(F)F` [Ex-181, N-(bicyclo[1.1.1]pentan-1-yl)-2-(((2R,7aS)-2-fluoro-tetrahydro-1H-pyrrolizin-7a(5H)-yl)-methoxy)-8-(6-methyl-5-(trifluoromethyl)-1H-indazol-4-yl)pyrido [4′,3′:4,5]thieno[2,3-d] pyrimidin-4-amine]: the concentration for half-maximal inhibition (IC50) came to 787 nM in assay [1], 1320 nM in assay [2], 758 nM in assay [3] and 1480 nM in assay [4].
